Measurements: patent publication US6486144B1, “Method of treatment of liver tumors and pharmaceutical compositions for use therein” (priority 1997, dated 2002)
“And” between values parts separate entries of the source, which are not always exact repeats. Identical values can stand only once. “Also recorded” adds a separate entry of the source.

Legend:
[1] = system: human hepatoma cell line, Hep G2; experiment: in vitro growth of human hepatoma cell line Hep G2 (thymidine uptake); format: cell-based; conditions: for % of control ±SEM: treated for 5 days
Procedure: (§1) Results are % of control ±SEM
(§2) LoVo cells were treated for 10 days, while HepG2 cells were treated for 5 days, with D3 or EB1089.

[2] = format: physicochemical
Procedure: To illustrate the solubility of vitamin D compound in lipiodol radiolabelled vitamin D3 was dissolved in lipiodol at various amounts and the compared to the solubility of radiolabelled vitamin D3.

[3] = pig model, intravenous versus hepatic arterial infusion, serum calcium; format: in vivo, Female Landrace pigs; conditions: for calcium levels: pig
Text: Female Landrace pigs (minimal disease) of weight 15-50 kg.
This infusion was delivered for a one or two week period, after which the animal was not treated for 4 weeks to allow any induced hepatic enzymes to diminish. The animal was then “crossed over” those whose first infusion was via the hepatic artery had their pump connected to an intravenous catheter and vice versa.
Blood was taken regularly and assayed foe calcium levels, LFTs and UECs.

[4] = 2 mcg/day administered orally; cited from earlier work
[5] = system: liver cancers (hepatoma or colorectal cancer metastases); experiment: Phase 1 trial of hepatic artery infusion: tumour marker (CEA or AFP) response; format: in vivo, human; conditions: for patients with at least a limited response (fall in the rate of rise of tumour marker): hepatic artery infusion
Text: 2. To investigate the effects of such an infusion upon liver cancers by monitoring of tumour marker levels and their rate of rise. […] Regular assay of LFTs, UECs, and calcium and phosphate levels, together with AFP or CEA levels. CEA or AFP levels—looking for evidence of response of the tumours to treatment

[6] = system: human colon cancer cells LoVo; experiment: in vitro growth of human colon cancer cells LoVo; format: cell-based; conditions: treated for 10 days
Procedure: as §1, §2

[7] = Phase 1 trial of hepatic artery infusion: safety, serum calcium; format: in vivo, human
Text: Regular assay of LFTs, UECs, and calcium and phosphate levels, together with AFP or CEA levels.
Patients 3, 5 and 6 were initially given 2 mcg/day, and then four weeks of 5 mcg/week.
Patient 4 was hypercalcaemic due to a paraneoplastic phenomena prior to treatment, and was therefore given lower dosages.
Patient 7 was commenced on the same dosage regimen as patients 3, 5 and 6 but was withdrawn from the trial prior to starting 10 mcg/day due to progression of their disease.
Calcium levels—looking for the development of hypercalcaemia
UECs and LFTs—looking for unexpected effects upon hepatic and renal function.

breast cancer = conditions: topical, cited from earlier work
SK-Hep = experiment: effect of EB1089 on hepatoma cell line SK-Hep; format: cell-based; set-up: unit not given here; conditions: day 5, 5% charcoal treated media, repeated experiments
Text: (§3) (All experiments carried out in 5% charcoal treated media. All day 5. Successive lines of results for a particular cell line are the results for repeated experiment)

NovoKoff = experiment: effect of EB1089 on hepatoma cell line NovoKoff; format: cell-based; set-up: unit not given here; conditions: day 5, 5% charcoal treated media, repeated experiments
Text: as §3

Morris = experiment: effect of EB1089 on hepatoma cell line Morris; format: cell-based; set-up: unit not given here; conditions: day 5, 5% charcoal treated media, repeated experiments
Text: as §3

Hep 1-6 = experiment: effect of EB1089 on hepatoma cell line Hep 1-6; format: cell-based; set-up: unit not given here; conditions: day 5, 5% charcoal treated media, repeated experiments
Text: as §3

HTC = experiment: effect of EB1089 on hepatoma cell line HTC; format: cell-based; set-up: unit not given here; conditions: day 5, 5% charcoal treated media, repeated experiments
Text: as §3

PCL = experiment: effect of EB1089 on hepatoma cell line PCL; format: cell-based; set-up: unit not given here; conditions: day 5, 5% charcoal treated media, repeated experiments
Text: as §3

human hepatoma = conditions: cited from earlier work

C=C1/C(=C\C=C2/CCC[C@]3(C)[C@@H]([C@H](C)CCCC(C)(C)O)CC[C@@H]23)C[C@@H](O)C[C@@H]1O [1.25(OH)2D3, 1.25-dihydroxycholecalciferol]
inhibition of growth ([1]; Hep G2, 10^−11M): considerably less effective
inhibition of growth ([1]; Hep G2, reduction in thymidine uptake, dose dependent (FIG. 1)): 95%
% of control ±SEM ([1]; HepG2, 10^−7 M): 7.1 ± 6.3 % of control
% of control ±SEM ([1]; HepG2, 10^−8 M): 8.6 ± 6.3 % of control
% of control ±SEM ([1]; HepG2, 10^−9 M): 13.8 ± 6.4 % of control
% of control ±SEM ([1]; HepG2, 10^−10 M): 56.6 ± 6.7 % of control
% of control ±SEM ([1]; HepG2, 10^−11 M): 105.6 ± 6.6 % of control
amount readily dissolved ([2]; in 1 ml lipiodol): ≥ 2 mg
calcium levels ([3]; hepatic arterial infusion, similar dosage, listed as 1.25(OH)D3): does not affect calcium levels; also recorded: does not produce the hypercalcaemia
calcium levels ([3]; intravenous infusion): results in hypercalcaemia
LFTs and UECs ([3]; pigs, either route): normal in all animals throughout
unexpected reaction ([3]; pigs, either route): No pig suffered any unexpected reaction
hypercalcaemia, share of patients [4]: 50 % of patients
patients with at least a limited response (fall in the rate of rise of tumour marker) [5]: 4 of 7 patients
tumour marker level ([5]; patient 1): dramatically increased at the onset of treatment but this was followed by an equally dramatic fall in the level
tumour marker level ([5]; patient 2): levelling off of the rate of rise with time
tumour marker level ([5]; patient 3): dramatic fall in marker level initially, but later this resumed it rise
rate of rise of CEA levels ([5]; patient 7): appears to have slowed somewhat
CEA levels rate of rise ([5]; patients 5 and 6): did not appear to have any response to treatment
% of control ±SEM ([6]; 10^−7 M): 34.2 ± 3.8 % of control
% of control ±SEM ([6]; 10^−8 M): 53.1 ± 5.0 % of control
% of control ±SEM ([6]; 10^−9 M): 74.2 ± 6.8 % of control
% of control ±SEM ([6]; 10^−10 M): 96.5 ± 12.9 % of control
% of control ±SEM ([6]; 10^−11 M): 127.4 ± 7.1 % of control
hypercalcaemia developed ([7]; hepatic arterial infusion, 15 mcg/day): two out of three patients
derangement of hepatic or renal function ([7]; hepatic artery infusion, seven patients): Nor did any patient experience any derangement of hepatic or renal function
unexpected adverse reaction or side effect to the infusion ([7]; hepatic artery infusion, seven patients, listed as 1.25(OH)D3): No patient suffered any unexpected adverse reaction or side effect; also recorded: safe and without unexpected side effects
dose administered without any observable systemic toxicity ([7]; intraarterially to the liver, patients): at least 10 mcg/day
calcium level ([7]; patient with pre existing hypercalcaemia (FIG. 3)): did not rise with treatment
hypercalcaemia during treatment ([7]; patients 1 and 2, lower doses): Neither patients 1 nor 2 became hypercalcaemic

C=C1/C(=C\C=C2/CCC[C@]3(C)[C@@H]([C@H](C)/C=C/[C@@H](O)C4CC4)CC[C@@H]23)C[C@@H](O)C[C@@H]1O [Calcipotriol, calcipotriol]
patients with a minimal response (breast cancer; of the 19 patients treated): 1 patients
patients with a significant response (breast cancer; of the 19 patients treated): 3 patients
patients who became hypercalcaemic during treatment (breast cancer): 2 of the 19 patients

C=C1/C(=C\C=C2/CCC[C@]3(C)[C@@H]([C@H](C)/C=C/C=C/C(O)(CC)CC)CC[C@@H]23)C[C@@H](O)C[C@@H]1O [EB1089, 1 α.25 (OH)2 22.24 diene 24.26.27 trihomo D3]
% of control ±SEM ([1]; HepG2, 10^−7 M): 11.2 ± 2.7 % of control
% of control ±SEM ([1]; HepG2, 10^−8 M): 13.1 ± 2.8 % of control
% of control ±SEM ([1]; HepG2, 10^−9 M): 13.2 ± 2.7 % of control
% of control ±SEM ([1]; HepG2, 10^−10 M): 49.1 ± 2.9 % of control
% of control ±SEM ([1]; HepG2, 10^−11 M): 41.7 ± 3.6 % of control
effect on hepatoma cell line (SK-Hep; 10^8 M): 63.1 ± 16.2 and 71.3 ± 11.8 and 83.1 ± 4.2 and 95.6 ± 12.2
effect on hepatoma cell line (SK-Hep; 10^9 M): 52.1 ± 8.8 and 61.6 ± 12.2 and 88.4 ± 4.1 and 103.1 ± 12.4
effect on hepatoma cell line (SK-Hep; 10^11 M): 82 ± 9.2 and 78.8 ± 11.5 and 118.3 ± 26.4 and 66.9 ± 36.9
effect on hepatoma cell line (SK-Hep; 10^-10 M): 52.1 ± 8.6 and 61.1 ± 16.6 and 91.0 ± 4.5 and 103.8 ± 11.7
effect on hepatoma cell line (NovoKoff; 10^7 M): 91.5 ± 14.5 and 84.6 ± 17.0
effect on hepatoma cell line (NovoKoff; 10^8 M): 106.0 ± 18.1 and 79.0 ± 18.4
effect on hepatoma cell line (NovoKoff; 10^9 M): 103.7 ± 13.8 and 95.4 ± 18.2
effect on hepatoma cell line (NovoKoff; 10^11 M): 131.0 ± 15.9 and 92.6 ± 17.6
effect on hepatoma cell line (NovoKoff; 10^-10 M): 116.3 ± 22.1 and 94.0 ± 21.4
effect on hepatoma cell line (Morris; 10^7 M): 136.0 ± 12.5 and 80.1 ± 5.2
effect on hepatoma cell line (Morris; 10^8 M): 134.0 ± 13.3 and 83.3 ± 4.7
effect on hepatoma cell line (Morris; 10^9 M): 117.8 ± 11.7 and 79.1 ± 4.9
effect on hepatoma cell line (Morris; 10^10 M): 118.0 ± 11.9 and 88.3 ± 3.9
effect on hepatoma cell line (Morris; 10^-11 M): 118.0 ± 14.3 and 90.8 ± 5.9
effect on hepatoma cell line (Hep 1-6; Hep 1-6, 10^8 M): 63.9 ± 7.0 and 113.4 ± 5.6
effect on hepatoma cell line (Hep 1-6; Hep 1-6, 10^9 M): 78.1 ± 11.4 and 106.7 ± 5.4
effect on hepatoma cell line (Hep 1-6; Hep 1-6, 10^11 M): 103.4 ± 9.2 and 98.1 ± 4.3
effect on hepatoma cell line (Hep 1-6; Hep 1-6, 10^-10 M): 110.8 ± 13.8 and 103.5 ± 4.5
effect on hepatoma cell line (HTC; 10^7 M): 95.3 ± 17.7 and 57.9 ± 7.2
effect on hepatoma cell line (HTC; 10^8 M): 86.9 ± 15.0 and 63.9 ± 12.5
effect on hepatoma cell line (HTC; 10^9 M): 100.4 ± 15.4 and 97.4 ± 13.8
effect on hepatoma cell line (HTC; 10^11 M): 98.8 ± 15.5 and 95.9 ± 13.0
effect on hepatoma cell line (HTC; 10^-10 M): 113.0 ± 22.1 and 107.8 ± 12.7
% of control ±SEM ([6]; 10^−7 M): 40.5 ± 10.7 % of control
% of control ±SEM ([6]; 10^−8 M): 51.0 ± 10.3 % of control
% of control ±SEM ([6]; 10^−9 M): 73.3 ± 11.7 % of control
% of control ±SEM ([6]; 10^−10 M): 55.3 ± 13.7 % of control
% of control ±SEM ([6]; 10^−11 M): 64.7 ± 12.7 % of control
effect on hepatoma cell line (PCL; 10^7 M): 98.5 ± 4.5 and 106.0 ± 9.1
effect on hepatoma cell line (PCL; 10^8 M): 101.6 ± 11.5 and 105.2 ± 4.9
effect on hepatoma cell line (PCL; 10^9 M): 98.3 ± 6.5 and 95.1 ± 3.3
effect on hepatoma cell line (PCL; 10^10 M): 92.5 ± 6.6 and 100.1 ± 2.1
effect on hepatoma cell line (PCL; 10^11 M): 102.5 ± 10.0 and 95.9 ± 2.9

CC/C(=C(\c1ccccc1)c1ccc(OCCN(C)C)cc1)c1ccccc1 [Tamoxifen]
survival (human hepatoma): significantly, but modestly, improve survival

C=C1CC[C@H](O)C/C1=C/C=C1\CCC[C@]2(C)[C@@H]([C@H](C)CCCC(C)C)CC[C@@H]12 [vitamin D3, cholecalciferol]
solubility in lipiodol compared with aqueous medium [2]: substantially more soluble in lipiodol
patients with at least a limited response (fall in the rate of rise of tumour marker) [5]: 4 of 7 patients
